Source: publication PMC3523469 (Investigational New Drugs, 2012)
Read-outs that look alike come from different tables or passages of the source.

Format: in vivo, Japanese patients
Conditions: 15 mg QD (n = 3)

Question: With `COc1cc2ncnc(Nc3ccc(F)c(Cl)c3)c2cc1NC(=O)/C=C/CN1CCCCC1` [dacomitinib, Dacomitinib] as the compound, how does the “Alanine aminotransferase increased, number of patients with treatment-related AE” value (“Alanine aminotransferase increased” for short) (All) read?
Answer: 0

Question: And the “Aspartate aminotransferase increased, number of patients with treatment-related AE” value (“Aspartate aminotransferase increased” below) (All)?
Answer: 0

Question: What about the “Blood bilirubin increased, number of patients with treatment-related AE” value (“Blood bilirubin increased, number” for short) (All) of the same compound?
Answer: 0

Question: And the “Cheilitis, number of patients with treatment-related AE” value (shortened to “Cheilitis, number of patients”) (All)?
Answer: 2

Question: And the “Conjunctivitis, number of patients with treatment-related AE” value (“Conjunctivitis, number of patients” below) (All)?
Answer: 0

Question: What about the “Decreased appetite, number of patients with treatment-related AE” value (shortened to “Decreased appetite, number of patients”) (All) of the same compound?
Answer: 0

Question: And the “Diarrhea, number of patients with treatment-related AE” value (“Diarrhea, number of patients” for short) (All)?
Answer: 2

Question: What about the “Dry skin, number of patients with treatment-related AE” value (from here on “Dry skin, number of patients”) (All) of the same compound?
Answer: 2

Question: What about the “ECG QT prolonged, number of patients with treatment-related AE” value (from here on “ECG QT prolonged, number of patients”) (All) of the same compound?
Answer: 2

Question: What about the “Edema, number of patients with treatment-related AE” value (from here on “Edema, number of patients”) (All) of the same compound?
Answer: 0

Question: What about the “Fatigue, number of patients with treatment-related AE” value (shortened to “Fatigue, number of patients”) (All) of the same compound?
Answer: 0

Question: What about the “Hematuria, number of patients with treatment-related AE” value (from here on “Hematuria, number of patients”) (All) of the same compound?
Answer: 0

Question: And the “Hypertrichosis, number of patients with treatment-related AE” value (shortened to “Hypertrichosis, number of patients”) (All)?
Answer: 0

Question: What about the “Leukopenia, number of patients with treatment-related AE” value (“Leukopenia, number of patients” for short) (All) of the same compound?
Answer: 0

Question: And the “Nausea, number of patients with treatment-related AE” value (“Nausea, number of patients” below) (All)?
Answer: 0

Question: And the “Palmar–plantar erythrodysesthesia, number of patients with treatment-related AE” value (from here on “Palmar–plantar erythrodysesthesia”) (All)?
Answer: 1

Question: And the “Paronychia, number of patients with treatment-related AE” value (from here on “Paronychia, number of patients”) (All)?
Answer: 1

Question: What about the “Proteinuria, number of patients with treatment-related AE” value (shortened to “Proteinuria, number of patients”) (All) of the same compound?
Answer: 0

Question: What about the “Rash, number of patients with treatment-related AE” value (“Rash, number of patients” for short) (All) of the same compound?
Answer: 3

Question: What about the “Skin fissures, number of patients with treatment-related AE” value (“Skin fissures, number of patients” for short) (All) of the same compound?
Answer: 0

Question: What about the “Stomatitis, number of patients with treatment-related AE” value (from here on “Stomatitis, number of patients”) (All) of the same compound?
Answer: 1

Question: And the “Weight decreased, number of patients with treatment-related AE” value (shortened to “Weight decreased, number of patients”) (All)?
Answer: 0

Question: What about the “Alanine aminotransferase increased” value (G1) of the same compound?
Answer: 0

Question: What about the “Aspartate aminotransferase increased” value (G1) of the same compound?
Answer: 0

Question: And the “Blood bilirubin increased, number” value (G1)?
Answer: 0

Question: And the “Cheilitis, number of patients” value (G1)?
Answer: 2

Question: And the “Conjunctivitis, number of patients” value (G1)?
Answer: 0

Question: And the “Decreased appetite, number of patients” value (G1)?
Answer: 0

Question: What about the “Diarrhea, number of patients” value (G1) of the same compound?
Answer: 2

Question: And the “Dry skin, number of patients” value (G1)?
Answer: 1

Question: What about the “ECG QT prolonged, number of patients” value (G1) of the same compound?
Answer: 1

Question: What about the “Edema, number of patients” value (G1) of the same compound?
Answer: 0

Question: What about the “Fatigue, number of patients” value (G1) of the same compound?
Answer: 0

Question: What about the “Hematuria, number of patients” value (G1) of the same compound?
Answer: 0

Question: And the “Hypertrichosis, number of patients” value (G1)?
Answer: 0

Question: And the “Leukopenia, number of patients” value (G1)?
Answer: 0

Question: And the “Nausea, number of patients” value (G1)?
Answer: 0

Question: And the “Palmar–plantar erythrodysesthesia” value (G1)?
Answer: 1

Question: And the “Paronychia, number of patients” value (G1)?
Answer: 0

Question: What about the “Proteinuria, number of patients” value (G1) of the same compound?
Answer: 0

Question: And the “Rash, number of patients” value (G1)?
Answer: 2

Question: What about the “Skin fissures, number of patients” value (G1) of the same compound?
Answer: 0

Question: And the “Stomatitis, number of patients” value (G1)?
Answer: 1

Question: And the “Weight decreased, number of patients” value (G1)?
Answer: 0

Question: What about the “Alanine aminotransferase increased” value (G2) of the same compound?
Answer: 0

Question: And the “Aspartate aminotransferase increased” value (G2)?
Answer: 0

Question: And the “Blood bilirubin increased, number” value (G2)?
Answer: 0

Question: What about the “Cheilitis, number of patients” value (G2) of the same compound?
Answer: 0

Question: What about the “Conjunctivitis, number of patients” value (G2) of the same compound?
Answer: 0

Question: What about the “Decreased appetite, number of patients” value (G2) of the same compound?
Answer: 0

Question: And the “Diarrhea, number of patients” value (G2)?
Answer: 0

Question: And the “Dry skin, number of patients” value (G2)?
Answer: 1

Question: And the “ECG QT prolonged, number of patients” value (G2)?
Answer: 1

Question: What about the “Edema, number of patients” value (G2) of the same compound?
Answer: 0

Question: And the “Fatigue, number of patients” value (G2)?
Answer: 0

Question: And the “Hematuria, number of patients” value (G2)?
Answer: 0

Question: What about the “Hypertrichosis, number of patients” value (G2) of the same compound?
Answer: 0

Question: What about the “Leukopenia, number of patients” value (G2) of the same compound?
Answer: 0

Question: And the “Nausea, number of patients” value (G2)?
Answer: 0

Question: And the “Palmar–plantar erythrodysesthesia” value (G2)?
Answer: 0

Question: And the “Paronychia, number of patients” value (G2)?
Answer: 1

Question: What about the “Proteinuria, number of patients” value (G2) of the same compound?
Answer: 0

Question: What about the “Rash, number of patients” value (G2) of the same compound?
Answer: 1

Question: What about the “Skin fissures, number of patients” value (G2) of the same compound?
Answer: 0

Question: What about the “Stomatitis, number of patients” value (G2) of the same compound?
Answer: 0

Question: What about the “Weight decreased, number of patients” value (G2) of the same compound?
Answer: 0

Question: What about the “Alanine aminotransferase increased” value (G3) of the same compound?
Answer: 0

Question: And the “Aspartate aminotransferase increased” value (G3)?
Answer: 0

Question: What about the “Blood bilirubin increased, number” value (G3) of the same compound?
Answer: 0

Question: What about the “Cheilitis, number of patients” value (G3) of the same compound?
Answer: 0

Question: What about the “Conjunctivitis, number of patients” value (G3) of the same compound?
Answer: 0

Question: And the “Decreased appetite, number of patients” value (G3)?
Answer: 0

Question: And the “Diarrhea, number of patients” value (G3)?
Answer: 0

Question: What about the “Dry skin, number of patients” value (G3) of the same compound?
Answer: 0

Question: And the “ECG QT prolonged, number of patients” value (G3)?
Answer: 0

Question: And the “Edema, number of patients” value (G3)?
Answer: 0

Question: What about the “Fatigue, number of patients” value (G3) of the same compound?
Answer: 0

Question: What about the “Hematuria, number of patients” value (G3) of the same compound?
Answer: 0

Question: And the “Hypertrichosis, number of patients” value (G3)?
Answer: 0

Question: And the “Leukopenia, number of patients” value (G3)?
Answer: 0
